The source of these data is patent US12017997B2, “Host-targeted pan-respiratory antiviral small molecule therapeutics” (priority 2021, dated 2024).

Data set [1] concerns recombinant Nipah virus expressing ZsGreen fluorescence protein (rNiV-ZsG). Briefly: microbe, parasite or virus in culture. The following applies: Henipavirus nipahense, MRC5, 72 h, read-out: MRC-5 EC50.
The nature of data set [2]: Toxicity testing: cell viability, Alamar Blue HS. Conditions: human, MRC-5 cells (uninfected). On the technique in general: Resazurin is reduced to fluorescent resorufin, in cell work by metabolically active cells.
In data set [3] the test system is MRC-5 cells. Nature of the data set: Toxicity testing: cell viability, Alamar Blue HS. The following applies: read-out: MRC-5 CC50; uninfected MRC-5 cells, 72 hours post-compound treatment.
For data set [4], the system named is recombinant Nipah virus expressing ZsGreen fluorescence protein (rNiV-ZsG). Conditions: human.

Like-named read-outs stand apart in the source and are kept apart here. A value given as a limit tells only on which side of the number the result lay.

`COc1c(CNC(=O)c2cc(C3CC3)nn2C)cccc1OCc1ccc(C(=O)N2CCN(S(=O)(=O)CC(C)C)CC2C)cc1` (stereo not shown) [Compound 8]: the EC50 in data set [1] turned out to be 0.194 µM. The compound also yielded a CC50 at 72 h in data set [2] of more than 5 µM.
The matching figures for `COc1c(CNC(=O)c2cc(C3CC3)nn2C)cccc1OCc1ccc(C(=O)N2CCN(S(C)(=O)=O)CC2)cc1` [Compound 9]: 0.508 µM and more than 5 µM.
In the case of `CC(=O)N1CCN(Cc2ccc(COc3cccc(CNC(=O)c4cc(C5CC5)nn4C)c3F)cc2)CC1` [Compound 13], the half-maximal effective concentration (EC50) in data set [1] came to 0.628 µM. For the same compound, in data set [2], the CC50 at 72 h is more than 5 µM.
`COc1c(CNC(=O)c2cc(C3CC3)nn2C)cccc1OCc1ccc(CN2CCN(S(=O)(=O)CC(C)C)CC2)cc1` [Compound 17]: in data set [3], the CC50 is more than 5 µM. In data set [4], the EC50 was found to be 0.0297 µM.
Regarding `COc1c(CNC(=O)c2cc(C3CC3)nn2C)cccc1OCc1ccc(CN2CCCC2)cc1` [Compound 18], the EC50 in data set [1] was 0.124 µM. In data set [2], this compound showed a CC50 at 72 h of more than 5 µM.
In data set [2], `COc1c(CNC(=O)c2cc(C3CC3)nn2C)cccc1OCc1ccc(CN2CCN(S(=O)(=O)CC(C)C)CC2)cc1` [Compound 19] yielded a CC50 at 72 h of more than 5 µM. In data set [4], the EC50 turned out to be 0.0146 µM.
Consider `COc1c(CNC(=O)c2cc(C3CC3)nn2C)cccc1OCc1ccc(CN2CCN(C)CC2)cc1` [Compound 23], for which, in data set [1], the half-maximal effective concentration (EC50) is 0.324 µM. The same compound gave a CC50 at 72 h in data set [2] of more than 5 µM.
As for `Cn1nc(C2CC2)cc1C(=O)NCc1cccc(OCc2ccc(C(=O)N3CCN(S(C)(=O)=O)CC3)cc2)c1Cl` [Compound 63], in data set [1], the EC50 worked out at 6.82 µM. Further, the half-maximal cytotoxic concentration (CC50) at 72 h in data set [2] is more than 5 µM.
The like results for `Cn1nc(C2CC2)cc1C(=O)NCc1ccc(OCc2ccc(C(=O)N3CCN(S(C)(=O)=O)CC3)cc2)c(OC(F)(F)F)c1` [Compound 80] were, in that order, 1.44 µM and more than 5 µM.
As to `COc1c(CNC(=O)c2cc(C3CC3)nn2C)cccc1OCc1cccc(CN2CCN(C(C)=O)CC2)c1` [Compound 88], in data set [1], the EC50 amounted to 0.144 µM. For the same compound, the CC50 at 72 h in data set [2] is more than 5 µM.
For `COc1c(CNC(=O)c2cc(C3CC3)nn2C)cccc1OCc1ccc(S(=O)(=O)N2CCN(S(C)(=O)=O)CC2)cc1` [Compound 91], in data set [1], the EC50 is 1.67 µM. This compound registered a CC50 at 72 h in data set [2] of more than 5 µM.
On to `COc1c(CNC(=O)c2cc(C3CC3)nn2C)cccc1OCc1ccc(S(=O)(=O)N2CCN(C)CC2)cc1` [Compound 92], for which, in data set [1], the EC50 was found to be 16.7 µM. Further, the CC50 at 72 h in data set [2] was more than 5 µM.
On to `COc1c(CNC(=O)c2cc(C3CC3)nn2C)cccc1OCc1ccc(C(=O)NC2CCN(S(C)(=O)=O)CC2)cc1` [Compound 94], for which, in data set [1], the EC50 was found to be 1.05 µM. In addition, the CC50 at 72 h in data set [2] was more than 5 µM.
Turning to `COc1c(CNC(=O)c2cc(C3CC3)nn2C)cccc1OCc1ccc(C(=O)N2CCC(N(C)S(C)(=O)=O)CC2)cc1` [Compound 96], in data set [1], the EC50 was 16.1 µM. The compound further returned a CC50 at 72 h in data set [2] of more than 5 µM.
The matching figures for `COc1c(CNC(=O)c2cc(C3CC3)nn2C)cccc1N(C)Cc1ccc(C(=O)N2CCN(S(C)(=O)=O)CC2)cc1` [Compound 113]: 1.5 µM and more than 5 µM.
The matching figures for `COc1c(CNC(=O)c2cc(C3CC3)nn2C)cccc1N1CCN(S(C)(=O)=O)CC1` [Compound 118]: 3.85 µM and more than 5 µM.
Regarding `Cc1c(CNCc2cc(C3CC3)nn2C)cccc1OCc1ccc(C(=O)N2CCN(S(C)(=O)=O)CC2)cc1` [Compound 127], the EC50 in data set [1] came out at 20 µM. Moreover, the CC50 at 72 h in data set [2] is more than 5 µM.
`COc1c(CNC(=O)c2cc(C3CC3)nn2C)cccc1OCc1ccc(OC(=O)N2CCN(S(C)(=O)=O)CC2)cc1` [Compound 128]: in data set [2], the CC50 at 72 h was more than 5 µM.
For `COc1c(CNC(=O)c2cc(C3CC3)nn2C)cccc1Oc1ccc(C(=O)N2CCN(S(C)(=O)=O)CC2)nn1` [Compound 133], the EC50 in data set [1] was determined as 6.32 µM. Also, the CC50 at 72 h in data set [2] was more than 5 µM.
Turning to `COc1c(CNC(=O)c2cc(C3CC3)nn2C)cccc1OCc1ccc(COC(=O)N2CCN(S(=O)(=O)CC(C)C)CC2)cc1` [Compound 173], the EC50 in data set [1] was 0.0239 µM. Moreover, the CC50 at 72 h in data set [2] is more than 5 µM.
The like results for `COc1c(CNC(=O)c2cc(C3CC3)nn2C)cccc1OCc1ccc(COC(=O)N2CCN(C(C)=O)CC2)cc1` [Compound 174] were, in that order, 0.129 µM and more than 5 µM.
Take `CN1CCN(Cc2ccc(COc3ccc(CNC(=O)c4cc(C5CC5)nn4C)cc3Cl)cc2)CC1` [Compound 175]: in data set [1], the concentration for a half-maximal effect (EC50) is 0.2 µM. Besides, the CC50 at 72 h in data set [2] is more than 5 µM.

As a reminder, the EC50 is the midpoint of the concentration-response curve. Broadly, the CC50 is the concentration that lowers cell viability or growth by half.
